Experimental data taken from patent publication US20220057378A1, “MICROBIAL MICROFLUIDIC BIOSENSOR” (priority 2015, published 2022).
Several values for one entry are separate records, joined by “and”; a condition that tells them apart may be missing. Equal values may be shown once.

Assays:
E. coli MG1655/As3 = experiment: on-chip time-lapse induction of promoter construct (GFP, gill chip); assay type: cell-based
Excerpt: The on-chip time-lapse induction response of each promoter construct in this table can be seen in FIG. 36. In each figure panel, the moment of toxin introduction is represented as a step in the red trace.

pZA47a = experiment: SVM classification of GFP sensor responses (toxin / no toxin); assay type: cell-based, E. coli; conditions: from classification accuracy and ROC curves
Excerpt: (§1) Computational models to determine the threshold of detection for specific sensors based on models of experimental GFP responses. We used machine learning techniques to determine the relationships between the GFP output signal and the presence of a toxin. We have created a database containing the collected sensor response data. We have quantified the GFP threshold of detection for each sensor construct. We have constructed Receiver Operating Characteristic (ROC) curves for each sensor to achieve robust sensing. We constructed machine learning models capable of inferring the relationships between the GFP sensor responses and the presence or absence of a toxin at a given concentration. […] The optimal meta-parameters of the SVM classifier were determined by applying a 5-crossvalidation during the training phase (2). In order to have a reliable estimate of the performance of the model when deployed in real environments, we measured its performance over a set of samples (test patterns) not seen during the training phase. The SVM's performance was determined by the percentage of test samples correctly labeled as toxin/no toxin (classification accuracy). […]
(§2) In order to have a reliable estimate of the performance of the model when deployed in real environments, we measured its performance over a set of samples (test patterns) not seen during the training phase. […]

pRS18 = experiment: as above; assay type: cell-based, E. coli; conditions: from classification accuracy and ROC curves; plasmid pRS18
Excerpt: as §1, §2

[1] = test system: E. coli MG1655 containing pRS18; experiment: on-chip step-induction of arsenic-sensing plasmid pRS18 (GFP); assay type: cell-based; conditions: pRS18 in E. coli MG1655, M9 + 0.4% glucose
Excerpt: Induction of pRS18, an arsenic-sensing plasmid, was first tested in the microfluidic device. A recombinant strain of E. coli MG1655 containing pRS18 was vacuum loaded into the microfluidic device, grown to confluence, and step-induced with sodium ortho-arsenite (Na3AsO3) in M9 minimal medium supplemented with 0.4% glucose. Images were collected using a Nikon Ti microscope with 4× objective magnification. Step induction was executed using the gravity-driven “Dial-AWave” automated flow control system to mix two medium sources in a defined ratio. The cells were sequentially exposed to arsenic concentrations of 0 μM, 0.1 μM, 0.5 μM, and 1 μM in 6-h windows, allowing time for the cells to respond to each concentration increase. […] We believe that the rise in GFP expression prior to the induction step is due to a small leak of inducer into the medium stream. Average fluorescence within the trapping regions of the images as well as arsenic concentration is plotted over time in FIG. 47C.

E. coli MG1655/As1 = experiment: on-chip time-lapse induction of promoter construct (GFP, gill chip); assay type: cell-based
Method: (§4) For on-chip induction experiments, strains were loaded into the device and grown in M9 minimal medium with 0.4% glucose and 50 μg/ml spectinomycin (for plasmid maintenance) for 2 days in the absence of toxin. Cells were imaged under 4× brightfield and GFP fluorescence filters on an Olympus IX-81 microscope every 2 min for 6 h under these non-inducing conditions to generate a fluorescence baseline. The toxin was then introduced to induce GFP expression and the cells were imaged every 2 min for 6 h.
(§5) To determine the response to toxin induction, the raw fluorescence images before and after induction were compared. The image stacks were analyzed using a custom ImageJ script to measure the average GFP signal over time for each cell trap. Any linear trend in the uninduced fluorescence data due to cell growth was subtracted from the data. In this manner, the dynamic signal-to-noise ratio (SNR) was calculated as: (current fluorescence−mean uninduced fluorescence)/(standard deviation of uninduced fluorescence).
(§6) This microfluidic platform was then used to measure the response of several toxin responsive promoter constructs identified from the literature and synthesized by Transcriptic. […] Note that SNR values greater than 2 indicate a significant response.

E. coli LABEC01/Cr5 = experiment: as above; assay type: cell-based
Method: as §4, §5, §6

[2] = test system: E. coli MG1655 containing pCueCopA; experiment: on-chip step-induction of copper-sensing plasmid pCueCopA (GFP); assay type: cell-based; conditions: pCueCopA in E. coli MG1655, LB medium
Method: Second, induction of pCue-CopA, a copper-sensing plasmid, was tested in the microfluidic device. A recombinant strain of E. coli MG1655 containing pCueCopA was vacuum-loaded into a microfluidic device, grown to confluence, and step-induced with copper sulfate (CuSO4) in LB medium. Images were collected using an Etaluma LumaScope microscope with 20× objective magnification. Step induction was again performed using the “Dial-A-Wave” automated flow control system. The cells were sequentially exposed to copper concentrations of 0 μM, 25 μM, 52 μM, 77 μM, and 99 μM in 6-h windows.

E. coli LABEC01/Pb2 = experiment: on-chip time-lapse induction of promoter construct (GFP, gill chip); assay type: cell-based
Method: as §4, §5, §6

E. coli MG1655/Zn6 = experiment: 18-strain chip induction; assay type: cell-based; conditions: Zn6, Pb7, Pb8 in descending magnitude
Excerpt: (§3) In an embodiment herein, the toxin response data across 18 unique sensing strains were also collected using a new chip design that houses 16 E. coli strains and 2 B. subtilis strains. The B. subtilis NCIB 3610/Amm3 construct is a “lights-off” sensor, meaning that GFP production drops when ammonium is introduced, following a slight increase due to faster growth on this preferred nitrogen source. […] By combining these sensor responses, we can identify cobalt by the unique response of Pb7 alone and lead by the unique combination of Zn6, Pb7, and Pb8 responses.

E. coli MG1655/Pb7 = experiment: 18-strain chip induction; assay type: cell-based
Excerpt: as §3

E. coli MG1655/Pb8 = experiment: 18-strain chip induction; assay type: cell-based; conditions: Zn6, Pb7, Pb8 in descending magnitude
Excerpt: as §3

[3] = 0.13 μM arsenic, 6 h induction, SNR > 2 = significant response

## [As] [Arsenic]
E. coli MG1655/As3; [3]
  SNR after 6 h: 33
E. coli MG1655/As3; arsR/parsR from E. coli genome, synthetic RBS
  Concentration Sensed in Microfluidic Device: 0.13 µM
pZA47a
  threshold of detection: 0.1 µM
pRS18
  threshold of detection: 0.2 µM
[1]
  arsenic concentration detected on-chip (GFP): 0.1 µM and 0.13 µM
E. coli MG1655/As1; [3]
  SNR after 6 h: 20
E. coli MG1655/As1; arsR/parsR from E. coli plasmid, native RBS
  Concentration Sensed in Microfluidic Device: 0.13 µM

## [Cr+6] [Chromium(VI)]
E. coli LABEC01/Cr5; 5 μM chromium(VI), 6 h induction, SNR > 2 = significant response
  SNR after 6 h: 5
E. coli LABEC01/Cr5; chrB/pchrB from O. tritici transposon, native RBS
  Concentration Sensed in Microfluidic Device: 5 µM

## [Cu] [Copper]
[2]
  copper concentration detected on-chip (GFP): 25 µM

## [Pb] [Lead]
E. coli LABEC01/Pb2; 7 μM lead, 6 h induction, SNR > 2 = significant response
  SNR after 6 h: 18
E. coli LABEC01/Pb2; pbrR/ppbrR from C. metallidurans plasmid, synthetic RBS
  Concentration Sensed in Microfluidic Device: 7 µM
E. coli MG1655/Zn6
  GFP response of strain Zn6: respond sensitively
E. coli MG1655/Pb7
  GFP response of strain Pb7: respond sensitively
E. coli MG1655/Pb8
  GFP response of strain Pb8: respond sensitively
